System: 596521-263-R-J1-PDC complex spheroids, viability % of control
Experiment: Anticancer human tumor 596521-263-R-J1-PDC patient-derived soft tissue sarcoma cell line growth inhibition [GQUAD]
Settings: for IC50: curve of first compound; for viability, T/C: stronger effect = lower value
Summary of the method: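 Viability of tumor cells grown as complex spheroids with endothelial and stromal cells, exposed to drug combinations. Top concentration at or near clinical Cmax (else 10 microM), diluted in half-log increments.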
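Further: spheroids exposed to drugs for 7 days before viability reading.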
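Wherever viability, T/C is given: 100% = DMSO vehicle control viability.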

Question: Which IC50 (second compound 0.0316 µM) does the source give for `COc1cccc2c1C(=O)c1c(O)c3c(c(O)c1C2=O)CC(O)(C(=O)CO)CC3OC1CC(N)C(O)C(C)O1` (configuration not stated) + Cc1cnc(CNC(=O)c2c(=O)c3ccc(N4CCCN(C)CC4)nc3n3c2sc2ccccc23)cn1 here?
Answer: 750 nM

Question: And the IC50 (second compound 0.1 µM)?
Answer: 784 nM

Question: What about the IC50 (second compound 0.316 µM) of the same compound?
Answer: 795 nM

Question: And the IC50 (second compound 1 µM)?
Answer: 511 nM

Question: And the IC50 (second compound 3.16 µM)?
Answer: 338 nM

Question: What about the IC50 (second compound 10 µM) of the same compound?
Answer: < 31.6 nM

Question: What about the viability, T/C (second compound 0.0316 µM, first compound 0.0316 µM) of the same compound?
Answer: 98.3%

Question: What about the viability, T/C (second compound 0.0316 µM, first compound 0.1 µM) of the same compound?
Answer: 71.2%

Question: What about the viability, T/C (second compound 0.0316 µM, first compound 0.316 µM) of the same compound?
Answer: 66.6%

Question: And the viability, T/C (second compound 0.0316 µM, first compound 1 µM)?
Answer: 52.3%

Question: What about the viability, T/C (second compound 0.0316 µM, first compound 3.16 µM) of the same compound?
Answer: 26.5%

Question: And the viability, T/C (second compound 0.0316 µM, first compound 10 µM)?
Answer: 4.29%

Question: What about the viability, T/C (second compound 0.1 µM, first compound 0.0316 µM) of the same compound?
Answer: 87.2%

Question: What about the viability, T/C (second compound 0.1 µM, first compound 0.1 µM) of the same compound?
Answer: 73.8%

Question: What about the viability, T/C (second compound 0.1 µM, first compound 0.316 µM) of the same compound?
Answer: 57.1%

Question: What about the viability, T/C (second compound 0.1 µM, first compound 1 µM) of the same compound?
Answer: 51.1%

Question: What about the viability, T/C (second compound 0.1 µM, first compound 3.16 µM) of the same compound?
Answer: 31%

Question: What about the viability, T/C (second compound 0.1 µM, first compound 10 µM) of the same compound?
Answer: 4.25%

Question: What about the viability, T/C (second compound 0.316 µM, first compound 0.0316 µM) of the same compound?
Answer: 78.7%

Question: And the viability, T/C (second compound 0.316 µM, first compound 0.1 µM)?
Answer: 70.4%

Question: What about the viability, T/C (second compound 0.316 µM, first compound 0.316 µM) of the same compound?
Answer: 55.5%

Question: What about the viability, T/C (second compound 0.316 µM, first compound 1 µM) of the same compound?
Answer: 51.4%

Question: And the viability, T/C (second compound 0.316 µM, first compound 3.16 µM)?
Answer: 29%

Question: And the viability, T/C (second compound 0.316 µM, first compound 10 µM)?
Answer: 3.29%

Question: What about the viability, T/C (second compound 1 µM, first compound 0.0316 µM) of the same compound?
Answer: 69.6%

Question: What about the viability, T/C (second compound 1 µM, first compound 0.1 µM) of the same compound?
Answer: 53%

Question: What about the viability, T/C (second compound 1 µM, first compound 0.316 µM) of the same compound?
Answer: 50.7%

Question: And the viability, T/C (second compound 1 µM, first compound 1 µM)?
Answer: 47.2%

Question: What about the viability, T/C (second compound 1 µM, first compound 3.16 µM) of the same compound?
Answer: 30.7%

Question: And the viability, T/C (second compound 1 µM, first compound 10 µM)?
Answer: 2.51%

Question: What about the viability, T/C (second compound 3.16 µM, first compound 0.0316 µM) of the same compound?
Answer: 50.7%

Question: And the viability, T/C (second compound 3.16 µM, first compound 0.1 µM)?
Answer: 49%

Question: And the viability, T/C (second compound 3.16 µM, first compound 0.316 µM)?
Answer: 52.7%

Question: And the viability, T/C (second compound 3.16 µM, first compound 1 µM)?
Answer: 45.2%

Question: What about the viability, T/C (second compound 3.16 µM, first compound 3.16 µM) of the same compound?
Answer: 23.8%

Question: And the viability, T/C (second compound 3.16 µM, first compound 10 µM)?
Answer: 0.29%

Question: And the viability, T/C (second compound 10 µM, first compound 0.0316 µM)?
Answer: 46.8%

Question: And the viability, T/C (second compound 10 µM, first compound 0.1 µM)?
Answer: 49.5%

Question: What about the viability, T/C (second compound 10 µM, first compound 0.316 µM) of the same compound?
Answer: 46.4%

Question: And the viability, T/C (second compound 10 µM, first compound 1 µM)?
Answer: 44.3%

Question: And the viability, T/C (second compound 10 µM, first compound 3.16 µM)?
Answer: 11.4%

Question: And the viability, T/C (second compound 10 µM, first compound 10 µM)?
Answer: 0.27%

From PubChem BioAssay AID2060500 (Molecular Pharmacology Branch, DTP, NCI, 2025)
